This note sets out measurements from patent publication US20070179060A1, “6-(Poly-substituted aryl)-4-aminopicolinates and their use as herbicides” (priority 2006, published 2007).

Data set [1] has as its system redroot pigweed (Amaranthus retroflexus). Briefly: Postemergence herbicidal activity. Format: in vivo. To be noted: Amaranthus retroflexus, post-emergence, 336 h, post-emergent, 140 g ai/ha, after 14 days; read-out: % Control AMARE. The method in brief:
(§1)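 Plants grown 7-21 days in greenhouse (about 15 h photoperiod, 23-29° C day, 22-28° C night) to first or second true leaf stage. Compounds in acetone/water/isopropanol/DMSO carrier with crop oil concentrate and Triton X-155 sprayed overhead at 187 L/ha; controls received solvent blank. Plants sub-irrigated afterwards; dose responses analysed by probit analysis.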

Data set [2] deals with lambsquarter (Chenopodium album). Briefly: Postemergence herbicidal activity. Particulars: Chenopodium album, post-emergence, 336 h, post-emergent, 140 g ai/ha, after 14 days; read-out: % Control CHEAL. Format: in vivo. The method in brief:
as §1

For data set [3], the system named is velvetleaf (Abutilon theophrasti). Briefly: Postemergence herbicidal activity. It is filed as in vivo. To be noted: Abutilon theophrasti, post-emergence, 336 h, post-emergent, 140 g ai/ha, after 14 days; read-out: % Control ABUTH. The procedure, abridged:
as §1

A further data set deals with barley (Hordeum vulare). Briefly: Postemergence herbicidal activity in cereal crops. Format: in vivo. Particulars: Hordeum, post-emergence, 480 h, crop, post-emergent, after 20-22 days, read-out: % Control HORVS; for pest or weed control at 70 g/ha: 70 g ai/ha. Here is the method:
(§2) When required to ensure good germination and healthy plants, a fungicide treatment and/or other chemical or physical treatment was applied. The plants were grown for 7-36 days in a greenhouse with an approximate 14 hour photoperiod which was maintained at about 18° C. during the day and 17° C. during the night. Nutrients and water were added on a regular basis and supplemental lighting was provided with overhead metal halide 1000-Watt lamps as necessary. The plants were employed for testing when they reached the second or third true leaf stage. […] The concentrated stock solutions obtained were diluted with 16 mL of an aqueous mixture containing acetone, water, isopropyl alcohol, DMSO, Agri-dex crop oil concentrate, and Triton® X-77 surfactant in a 64.7:26.0:6.7:2.0:0.7:0.01 v/v ratio to obtain spray solutions containing the highest application rates. […] Compound requirements are based upon a 12 mL application volume at a rate of 187 L/ha. Formulated compounds were applied to the plant material with an overhead Mandel track sprayer equipped with a […] nozzles calibrated to deliver 187 L/ha over an application area of 0.503 square meters at a spray height of 18 inches (43 cm) above average plant canopy height. Control plants were sprayed in the same manner with the blank. The treated plants and control plants were placed in a greenhouse as described above and watered by sub-irrigation to prevent wash-off of the test compounds.

For a further data set, the system named is Veronica persica. The experiment in a line: Postemergence herbicidal activity in cereal crops. It is filed as in vivo. Particulars: Veronica persica, post-emergence, 480 h, post-emergent, after 20-22 days, read-out: % Control VERPE; for pest or weed control at 70 g/ha: 70 g ai/ha. Here is the method: as §2
In a further data set the test system is Papaver rhoeas. The experiment in a line: Postemergence herbicidal activity in cereal crops. Format: in vivo. To be noted: Papaver rhoeas, post-emergence, 480 h, post-emergent, after 20-22 days, read-out: % Control PAPRH; for pest or weed control at 70 g/ha: 70 g ai/ha. Here is the method:
as §2

Another data set relates to Lamium purpureum. Briefly: Postemergence herbicidal activity in cereal crops. Format: in vivo. Particulars: Lamium purpureum, post-emergence, 480 h, post-emergent, after 20-22 days, read-out: % Control LAMPU; for pest or weed control at 70 g/ha: 70 g ai/ha. How it is done:
as §2

A further data set relates to Galium aparine. Briefly: Postemergence herbicidal activity in cereal crops. To be noted: Galium aparine, post-emergence, 480 h, post-emergent, after 20-22 days, read-out: % Control GALAP; for pest or weed control at 70 g/ha: 70 g ai/ha. Format: in vivo. How it is done:
as §2

The test system of data set [4] is wheat (Triticum aestivum). Briefly: Postemergence herbicidal activity in cereal crops. It is filed as in vivo. To be noted: Triticum aestivum, post-emergence, 480 h, crop, post-emergent, after 20-22 days, read-out: % Control TRZAS; for plant injury at 70 g/ha: 70 g ai/ha. How it is done: as §2
The subject of data set [5] is redroot pigweed (Amaranthus retroflexus). The experiment in a line: Preemergence herbicidal activity. Format: in vivo. To be noted: Amaranthus retroflexus, pre-emergence, 480 h; pre-emergent, 140 g ai/ha, after 20-22 days; read-out: % Control AMARE. The procedure, abridged:
(§3)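 Seeds sown in 70:30 loam (pH about 8.1, about 1.5% organic matter) and sand mix, then sprayed preemergence at 187 L/ha with a track sprayer; controls received solvent blank. Pots kept in greenhouse, about 15 h photoperiod, about 23-29° C. day and 22-28° C. night, top-irrigated.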

For data set [6], the system named is lambsquarter (Chenopodium album). Briefly: Preemergence herbicidal activity. It is filed as in vivo. Particulars: Chenopodium album, pre-emergence, 480 h; pre-emergent, 140 g ai/ha, after 20-22 days; read-out: % Control CHEAL. The procedure, abridged:
as §3

Data set [7] deals with velvetleaf (Abutilon theophrasti). The experiment in a line: Preemergence herbicidal activity. It is filed as in vivo. Particulars: Abutilon theophrasti, pre-emergence, 480 h; pre-emergent, 140 g ai/ha, after 20-22 days; read-out: % Control ABUTH. The procedure, abridged: as §3

As for `COC(=O)c1nc(-c2ccc(Cl)c(OC)c2F)c(F)c(N)c1Cl` [Compound 14, 4-Amino-3-chloro-5-fluoro-6-(4-chloro-2-fluoro-3-methoxyphenyl)pyridine-2-carboxylic acid methyl ester], the melting point fell in the range of 172 to 173 °C. Further, the pest or weed control at 140 g/ha in data set [1] was found to be 100%. For the same compound, the pest or weed control at 140 g/ha in [2] worked out at 100%. For the same compound, the pest or weed control at 140 g/ha in data set [3] came out at 100%. The pest or weed control at 35 g/ha with barley (Hordeum vulare) (35 g ai/ha) came to 0%. The pest or weed control at 35 g/ha with Veronica persica (35 g ai/ha) was 65%. Moreover, the pest or weed control at 35 g/ha in the data set on Papaver rhoeas (35 g ai/ha) was determined as 95%. In the data set on Lamium purpureum (35 g ai/ha), the pest or weed control at 35 g/ha turned out to be 95%. Further, the pest or weed control at 35 g/ha in the data set with Galium aparine (35 g ai/ha) was 90%. Also, the plant injury at 35 g/ha in data set [4] (35 g ai/ha) was 0%. In addition, in [5], the pest or weed control at 140 g/ha was determined as 100%. Moreover, the pest or weed control at 140 g/ha in data set [6] was found to be 100%. Moreover, the pest or weed control at 140 g/ha in data set [7] worked out at 100%.
The compound `COC(=O)c1nc(-c2ccc(Cl)c(N(C)C)c2F)cc(N)c1Cl` [Compound 16, 4-Amino-3-chloro-6-(4-chloro-3-dimethylamino-2-fluorophenyl)pyridine-2-carboxylic acid, methyl ester] showed a melting point of 104 to 106 °C. For the same compound, the pest or weed control at 140 g/ha in data set [1] amounted to 100%. Moreover, the pest or weed control at 140 g/ha in data set [2] came to 100%. In addition, in data set [3], the pest or weed control at 140 g/ha came out at 100%. Also, the pest or weed control at 17.5 g/ha with barley (Hordeum vulare) (17.5 g ai/ha) was determined as 10%. In addition, the pest or weed control at 17.5 g/ha in the data set on Veronica persica (17.5 g ai/ha) is 95%. In addition, in the data set on Papaver rhoeas (17.5 g ai/ha), the pest or weed control at 17.5 g/ha stood at 95%. Further, the pest or weed control at 17.5 g/ha in the data set with Lamium purpureum (17.5 g ai/ha) was determined as 100%. The pest or weed control at 17.5 g/ha with Galium aparine (17.5 g ai/ha) was determined as 95%. The plant injury at 17.5 g/ha in [4] (17.5 g ai/ha) worked out at 10%. The pest or weed control at 140 g/ha in [5] came out at 100%. Further, the pest or weed control at 140 g/ha in [6] was determined as 100%. Also, the pest or weed control at 140 g/ha in data set [7] is 90%.
`COC(=O)c1nc(-c2cc(N(C)C)c(Cl)cc2F)cc(N)c1Cl` [Compound 26, 4-amino-3-chloro-6-(4-chloro-5-dimethylamino-2-fluorophenyl)pyridine-2-carboxylic acid methyl ester] gave a melting point of 113 to 115 °C. Also, the pest or weed control at 140 g/ha in [1] was found to be 100%. Also, the pest or weed control at 140 g/ha in data set [2] was found to be 100%. In data set [3], the pest or weed control at 140 g/ha was found to be 100%. The pest or weed control at 70 g/ha in the data set with barley (Hordeum vulare) turned out to be 10%. The pest or weed control at 70 g/ha in the data set on Veronica persica was found to be 40%. Also, in the data set with Papaver rhoeas, the pest or weed control at 70 g/ha amounted to 95%. Besides, the pest or weed control at 70 g/ha in the data set on Lamium purpureum amounted to 95%. Further, in the data set with Galium aparine, the pest or weed control at 70 g/ha came out at 80%. Further, the plant injury at 70 g/ha in data set [4] was found to be 0%. Also, the pest or weed control at 140 g/ha in data set [5] turned out to be 10%. In [6], the pest or weed control at 140 g/ha is 90%. The pest or weed control at 140 g/ha in [7] came out at 10%.
On to `COC(=O)c1nc(-c2cc(OC)c(Cl)cc2F)cc(N)c1Cl` [Compound 43, 4-Amino-3-chloro-6-(4-chloro-2-fluoro-5-methoxyphenyl)pyridine-2-carboxylic acid methyl ester], for which the pest or weed control at 140 g/ha in data set [1] stood at 100%; in data set [2] it was 100%; in data set [3], 100%; in data set [5], 100%; in [6], 100%; in data set [7] it was 98%. For the same compound, the pest or weed control at 70 g/ha is 5% in the data set on barley (Hordeum vulare); 30% in the data set with Veronica persica; 85% with Papaver rhoeas; 99% in the data set on Lamium purpureum; 65% in the data set on Galium aparine. In addition, the plant injury at 70 g/ha in data set [4] is 0%.
Regarding `COC(=O)c1nc(-c2c(F)cc(Cl)c(N(C)C)c2F)cc(N)c1Cl` [Compound 50, 4-Amino-3-chloro-6-[4-chloro-3-(dimethylamino)-2,6-difluorophenyl]pyridine-2-carboxylic acid, methyl ester], the pest or weed control at 140 g/ha in data set [1], in [2], in [3], in data set [5], in data set [6] and in [7] was 100% in each case. In addition, the pest or weed control at 70 g/ha in the data set on barley (Hordeum vulare) was determined as 0%; in the data set on Veronica persica, 60%; in the data set on Papaver rhoeas it was 95%; in the data set on Lamium purpureum it was 100%; with Galium aparine, 95%. Besides, the plant injury at 70 g/ha in [4] was 0%.
As for `COc1cc(-c2cc(N)c(Cl)c(C(=O)O)n2)c(F)cc1Cl` [Compound 101, 4-Amino-3-chloro-6-(4-chloro-2-fluoro-5-methoxyphenyl)pyridine-2-carboxylic acid], the pest or weed control at 140 g/ha in data set [1], in data set [2], in [3], in [5], in data set [6] and in [7] was 100% throughout. For the same compound, the pest or weed control at 70 g/ha in the data set with barley (Hordeum vulare) was 5%; in the data set with Veronica persica, 60%; in the data set with Papaver rhoeas, 100%; with Lamium purpureum, 99%; with Galium aparine, 60%. Further, in data set [4], the plant injury at 70 g/ha came to 10%.
